Laboratory results as given in US7312248B2, “Control of parasites in animals by the use of novel trifluoromethanesulfonanilide oxime ether derivatives” (Schering-Plough Animal Health Corporation, priority 2004, dated 2007).
Where two headings read alike, the source gives them in different places.

Tests used:
Type in all cases: in vivo
[1] = system: cat flea (Ctenocephalides felis); test: whole plant or invertebrate; conditions: Ctenocephalides felis, Laboratory 1 A data
Method in brief: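 Adult C. felis (3-7 days post-emergence; 15 per flask, at least 4 replicates) exposed to a glass flask base dried 24 h after coating with compound in acetone at 1.26 μg/cm^2. Held at 25±1 °C, 75±5% humidity; mortality (immobile or unable to right) scored at 8, 24 and/or 48 h as percentage.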

[2] = system: cat flea (Ctenocephalides felis); test: Ctenocephalides felis adulticide assay: dose response (LC50)
Method in brief: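 Groups of 15 adult cat fleas, 3–7 days post-emergence, were exposed for 24 h at 25° C and 75% humidity to glass flask bases coated with six serial doses in acetone and dried for 24 h. Mortality was scored at 8 and 24 h, and LC50 was the surface-treatment concentration killing 50%.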

[3] = system: Brown Dog Tick (Rhipicephalus sanguineus); test: Dose response protocol for topical application on brown dog ticks (LD50); conditions: 24 h mortality
[4] = 8 h, read-out: C. felis Mortality (%) 8 h, 8 h
[5] = 24 h, read-out: C. felis Mortality (%) 24 h, 24 h

CC/C(=N\OCc1ccc(C(F)(F)F)cc1)c1cc(Cl)ccc1NS(=O)(=O)C(F)(F)F [Compound 9]
mortality at 1.26 µg/cm2, 1.26 µg/cm2 [1, 4]: 86%
mortality at 1.26 µg/cm2, 1.26 µg/cm2 [1, 5]: 98%
C. felis LC50 ([2]; Laboratory 1 C data): 0.1 μg/cm^2
C. felis LC50 ([2]; Laboratory 2 D data): 0.01 μg/cm^2
R. sanguineus LD50 [3]: 2.7 μg/tick

CC/C(=N\OCc1ccc(Cl)cc1)c1cc(Cl)ccc1NS(=O)(=O)C(F)(F)F [Compound 11, N-{4-chloro-2-[1-(4-chlorobenzyloxyimino)propyl]phenyl}trifluoromethanesulfonamide]
mortality at 1.26 µg/cm2, 1.26 µg/cm2 [1, 4]: 87%
mortality at 1.26 µg/cm2, 1.26 µg/cm2 [1, 5]: 100%
C. felis LC50 ([2]; Laboratory 1 C data): 0.1 μg/cm^2
C. felis LC50 ([2]; Laboratory 2 D data): 0.01 μg/cm^2
R. sanguineus LD50 [3]: 2.5 μg/tick
